Reference: article PMC8570331, “8-Hydroxyquinoline-Amino Acid Hybrids and Their Half-Sandwich Rh and Ru Complexes: Synthesis, Anticancer Activities, Solution Chemistry and Interaction with Biomolecules” (International Journal of Molecular Sciences, 2021)
Entries after “also recorded” stand apart in the source; their conditions may differ.

Tests used:
pGEX-6P-1 plasmid DNA = assay: In vitro DNA cleavage analysis, agarose gel electrophoresis; type: biochemical; conditions: 50 ng plasmid, 0–100 µM compound, 37 °C, up to 72 h, pH 7.4
Protocol: In this assay, both single-stranded and double-stranded cleavage can be detected using bacterial plasmid DNA since the plasmid changes from the intact superhelical (sc) conformation to open circular (oc) and linear over digestion, which can be well detected by agarose gel electrophoresis. […] The RhCp* complex behaved similarly up to 10 µM, whereas at 100 µM concentration, the superhelical DNA remained intact during the incubation period, although the disappearance of the open circular DNA line is seen after 72 h. The observed effect is clearly not related to DNA cleavage; since fragmentation or the appearance of linear DNA could not be seen, the supercoiled DNA form was still visible. We can assume that the decrease in intensity might be due to the competition for DNA between the concentrated complex and EB (that is used for the detection of DNA in the gel).
Before the measurements, the reaction buffer was treated with 5 mg/L Chelex-100 (Sigma-Aldrich) cation exchange resin for 30 min at 25 °C. This was followed by filtration of the buffer through 0.2 µm pore size sterile, non-pyrogenic/endotoxin-free non-cytotoxic PES filter (Sarstedt) under laminal flow. The tested compounds were dissolved in this filtered cation exchanged buffer. pGEX-6P-1 DNA was purified by GeneJET plasmid maxiprep kit (Thermo Scientific™, Waltham, MA, USA) and was treated with Chelex-100 resin and filtered as described previously, and was followed by buffer exchange of the DNA sample using Amicon 10K 0.5 mL filters (4 × 5 min, 14,000 g, 25 °C) to the filtered reaction buffer. […] Based on agarose gel electrophoresis, no genomic DNA contamination was detected, and the plasmid DNA is largely in superhelical conformation with a small fraction of open circular form. In a typical reaction, 10 µL aliquots containing 50 ng DNA and 0–100 µM compound were incubated at 37 °C from 0 h up to 3 days. The reaction mixture was immediately examined after incubation or frozen at −30 °C until the gel electrophoresis experiment. […] Images were recorded by a Uvitec BTS 20MS gel documentation system.

Ac-Phe–His–Ala-NH2 (FHA) = assay: Binding to the His model tripeptide FHA by 1H NMR; conditions: pH 7.4 (PBS’), 0.5 or 1 mM
Text: The slow binding kinetics indicates coordination binding mode, and the monodentate coordination of a side chain donor of HSA takes place most likely by the replacement of the co-ligand water or chloride, while the original bidentate (N,O) ligand remains coordinated, as it was also reported to analogous high stability RuCym and RhCp* complexes.
Similar reaction rates with FHA were found for the HQCl-D-Pro and HQCl-D-hPro complexes, and the reaction with this simple oligopeptide is much faster compared to the HSA. Conditional stability constants determined for the complex-FHA ternary species by ^1H NMR spectroscopic measurements (exemplary spectra are presented in Figure S29) are shown in Table 4. […] In all, this oligopeptide model can serve as a good binding model for surface-exposed side chains, although it provides limited information about binding events at more deeply located binding pockets of HSA, where the role of secondary interactions might be more significant.
Bruker Avance III HD Ascend 500 Plus instrument (Billerica, MA, USA) was used for NMR studies. ^1H NMR spectroscopic measurements were carried out with a WATERGATE water suppression pulse scheme in the presence of 10% (v/v) D2O in most cases. DSS internal standard was added to samples to obtain reference peaks. Complex concentrations were 0.5 mM or 1.0 mM, and 0.5 equiv. HSA was added. ^1H NMR titrations were carried out in the presence of 0.2 M KNO3. With the FHA model peptide, the measurements were performed at 0.5 or 1 mM metal complex concentrations, and 1:1, 1:2 or 2:1 peptide-to-metal complex ratios were applied. The computer program HypSpec was used to obtain stability constants.

[1] = target: T1, HSA site II (subdomain IIIA) (Homo sapiens, UniProt P02768); assay: Dansylglycine (DG) site marker displacement, spectrofluorometry; type: binding; conditions: cHSA = 1 µM, cDG = 1 µM, pH 7.4 (PBS’)
T1 construct: purchased Sigma-Aldrich A8763
T1 sequence (P02768 25-609): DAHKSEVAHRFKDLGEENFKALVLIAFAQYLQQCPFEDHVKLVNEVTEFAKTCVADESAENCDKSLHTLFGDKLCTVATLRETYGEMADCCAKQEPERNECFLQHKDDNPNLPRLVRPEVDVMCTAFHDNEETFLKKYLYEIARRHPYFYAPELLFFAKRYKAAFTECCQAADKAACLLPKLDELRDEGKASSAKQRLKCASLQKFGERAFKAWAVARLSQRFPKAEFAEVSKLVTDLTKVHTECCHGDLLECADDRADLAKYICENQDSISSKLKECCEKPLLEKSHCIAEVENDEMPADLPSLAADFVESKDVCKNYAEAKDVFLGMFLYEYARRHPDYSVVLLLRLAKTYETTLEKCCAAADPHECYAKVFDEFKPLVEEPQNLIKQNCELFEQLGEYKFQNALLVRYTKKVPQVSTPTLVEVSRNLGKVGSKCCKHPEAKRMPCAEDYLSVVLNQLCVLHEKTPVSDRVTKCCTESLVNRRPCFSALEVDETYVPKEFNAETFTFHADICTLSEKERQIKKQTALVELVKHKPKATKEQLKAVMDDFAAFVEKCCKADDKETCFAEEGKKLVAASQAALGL
Protocol: Tryptophan (Trp-214) quenching and dansylglycine (DG) site marker displacement experiments were performed to calculate binding constants for site I and II, respectively, similar to our previous works.
Fluorescence measurements were carried out on a Fluoromax (Horiba Jobin Yvon, Longjumeau, France) spectrofluorometer using 1 cm × 1 cm quartz cuvette. Samples contained 1 µM HSA or 1 µM DG and 1 µM HSA, or 20 µM (nucleotide) ct-DNA and 5 µM EB, and the complex concentration was varied between 0 and 40 µM or 0 and 300 µM, respectively. Spectroscopic measurements were carried out on individually prepared samples. Excitation wavelengths were 295 nm for Trp-214 quenching, 340 nm for the DG displacement studies and 510 nm for the ct-DNA–EB system. The calculated conditional stability constants for HSA–complex species were obtained using the computer program HypSpec. Calculations always were based on data obtained from at least two independent measurements. Self-absorbance and inner filter effect had to be taken into account, and corrections were made as was described in our former works.

| SMILES | DNA cleavage / DNA damage (pGEX-6P-1 plasmid DNA) | FHA logKFHA′ (Ac-Phe–His–Ala-NH2 (FHA)) | DG Displacement logKDG′, Site II [1] |
| --- | --- | --- | --- |
| O=C(O)[C@H]1CCCCN1Cc1cc(Cl)c2cccnc2c1O [HQCl-D-hPro, (R)-5-chloro-7-((homoproline-1-yl)methyl)8-hydroxyquinoline] | do not induce DNA cleavage; also recorded: No DNA damage was observed | – | – |
| Cc1c(C)c(C)[c-](C)c1C.O=C(O)[C@H]1CCC[NH+]1Cc1cc(Cl)c2cccnc2c1[O-].[Cl-].[Cl-].[Rh+3] [RhCp*–HQCl-D-Pro, [RhCp*(HQCl-D-Pro)Cl]Cl] | – | 4.4 ± 0.2 | 5.5 ± 0.1 |
| Cc1c(C)c(C)[c-](C)c1C.O=C(O)[C@H]1CCCC[NH+]1Cc1cc(Cl)c2cccnc2c1[O-].[Cl-].[Cl-].[Rh+3] [RhCp*–HQCl-D-hPro, [RhCp*(HQCl-D-hPro)Cl]Cl] | do not induce DNA cleavage | 4.5 ± 0.2 | 5.4 ± 0.1 |
| Cc1ccc(C(C)C)cc1.O=C(O)[C@H]1CCC[NH+]1Cc1cc(Cl)c2cccnc2c1[O-].[Cl-].[Cl-].[Ru+2] [RuCym–HQCl-D-Pro, [RuCym(HQCl-D-Pro)Cl]Cl] | – | 4.4 ± 0.3 | 5.6 ± 0.1 |
| Cc1ccc(C(C)C)cc1.O=C(O)[C@H]1CCCC[NH+]1Cc1cc(Cl)c2cccnc2c1[O-].[Cl-].[Cl-].[Ru+2] [RuCym–HQCl-D-hPro, [RuCym(HQCl-D-hPro)Cl]Cl] | do not induce DNA cleavage; also recorded: No DNA damage was observed | 4.6 ± 0.2 | 5.7 ± 0.1 |
